A short description of this series: solvent given as SMILES.

For the compound `CCCCCCN(CCCCCC)c1ccc(C#Cc2ccc(-c3ccc(C#Cc4ccc(N(CCCCCC)CCCCCC)cc4)cc3)cc2)cc1`, the absorption maximum (in Cc1ccccc1) was determined as 374 nm.

In the case of `Cc1ccc(-c2c3ccc([nH]3)c3nc(c(-c4ccc(C#N)cc4)c4ccc([nH]4)c4ccc([nH]4)c(-c4ccc(C)cc4)c4ccc2o4)C=C3)cc1`, the absorption maximum is, setting by setting: (in C1CCOC1) 451 nm; (in Cc1ccccc1) 452 nm; (in c1ccccc1) 452 nm.

Regarding `COC1(OC)C2(Cl)c3nc4cc(-c5cccs5)ccc4nc3C1(Cl)C1C[C@H]3[C@@H](CC12)C1(Cl)c2nc4cc(-c5cccs5)ccc4nc2C3(Cl)C1(OC)OC` (some centres undefined), the absorption maximum runs as follows: (in CC#N) 366 nm; (in CCCCCC) 358 nm; (in CCOC(C)=O) 362 nm; (in CO) 369 nm; (in Cc1ccccc1) 364 nm; (in ClC(Cl)Cl) 368 nm. The compound also had an absorption maximum (in ClCCl) of 369 nm.

For `BrC1=CN2C[n+]3cc(Br)ccc3N=C2C=C1`, the absorption maximum (in CO) is reported as 434 nm.

`CCCC1(CCC)c2cc(-c3ccc(C(C)(C)CC)cc3)ccc2-c2ccc(-c3ccc(C(C)(C)CC)cc3)cc21` came in with an absorption maximum (in C1CCCCC1) of 328 nm.

With `CCc1c(C)c2n(c1C)[B-](F)(F)[N+]1=C(C=C3c4ccccc4-c4ccccc43)C=CC1=C2C`, for the setting “in C1CCCCC1”, the absorption maximum was found to be 589 nm.

Under “in CC#N”, `CCOC(=O)c1c2c3c(ccc([N+](=O)[O-])c3c3cc4c(cc13)[Si](C)(C)O[Si]4(C)C)N(C)C2=O` came in with an absorption maximum of 376 nm.

The compound `c1ccc(-n2c3ccccc3c3cc(-c4cccc(-n5c6ccccc6c6c7sc8ccccc8c7ccc65)c4)ccc32)cc1` came in with an absorption maximum (in ClCCl) of 355 nm.

On to `CCN1c2ccc(-c3cc(C(F)(F)F)[nH]n3)cc2Sc2cc(-c3cc(C(F)(F)F)[nH]n3)ccc21`, for which the absorption maximum is, setting by setting: (in C1CCOC1) 336 nm; (in CC#N) 336 nm; (in CN(C)C=O) 336 nm; (in ClCCl) 334 nm; (in c1ccccc1) 336 nm.

`COC(=O)c1c(-c2cc3ccccc3oc2=O)nn(-c2cccc(C)c2)c1C(=O)OC`: for the setting “in ClCCl”, the absorption maximum turned out to be 324 nm.

As to `C(S/C=C/c1ccc(-c2ccc(/C=C/SC=C3CCCC3)cc2)cc1)=C1CCCC1`, the absorption maximum (in ClCCl) was 352 nm.

With `CCCCCCCCOc1ccc2c3cccc4c(OCCCCCCCC)ccc(c5cccc1c52)c43`, the absorption maximum was 460 nm (in C1CCOC1); 462 nm (in Cc1ccccc1); 462 nm (in ClC(Cl)(Cl)Cl); 462 nm (in ClC(Cl)Cl); 461 nm (in ClCCl); 464 nm (in c1ccncc1).

Turning to `COc1ccc2c(c1)c1cc(OC)ccc1n2-c1nc2ccccc2nc1-n1c2ccc(OC)cc2c2cc(OC)ccc21`, the absorption maximum (in Cc1ccccc1) was 437 nm.

Regarding `COc1ccc(C#Cc2ccc(C#Cc3ccc(P(=O)(c4ccc(C#Cc5ccc(C#Cc6ccc(OC)cc6)cc5)cc4)c4ccc(C#Cc5ccc(C#Cc6ccc(OC)cc6)cc5)cc4)cc3)cc2)cc1`, the absorption maximum (in C1CCCCC1) worked out at 335 nm; the absorption maximum (in C1COCCO1) is on record as 336 nm; the absorption maximum (in CC#N) worked out at 334 nm; the absorption maximum (in CCO) is on record as 336 nm; the absorption maximum (in CS(C)=O) was found to be 338 nm; the absorption maximum (in ClC(Cl)Cl) is on record as 338 nm. Under “in ClCCl”, the absorption maximum came to 338 nm.

For `CCCCCCC(CCCCCC)N1C(=O)c2cccc3c(-c4ccc(OC)cc4)ccc(c23)C1=O`, the absorption maximum is 354.2 nm (in CCCCCC); 356.4 nm (in CCCCCCCCCCCCCC); 365.6 nm (in CCCCCCCCCCCO); 366.2 nm (in CCCCO); 368 nm (in CN(C)C=O); 364.2 nm (in Cc1ccccc1). Also, where the note is “in ClC(Cl)Cl”, the absorption maximum is recorded as 364.8 nm.

The record behind these values is the Deep4Chem optical property database.
